Values of other authors, collected in PMC4382562 (Current Chemical Genomics and Translational Medicine, 2015).

Tested on: iCell Neurons
Conditions: read-out: Neurite outgrowth IC50 (high content image-based analysis), previously reported

Row | Compound | IC50
1 | CCCCCC[C@H]1C(=O)O[C@H](C)[C@H](NC(=O)c2cccc(NC=O)c2O)C(=O)O[C@@H](C)[C@@H]1OC(=O)CC(C)C [Antimycin A] | ~13 µM
2 | CN[C@@H]1C[C@H]2O[C@@](C)([C@@H]1OC)n1c3ccccc3c3c4c(c5c6ccccc6n2c5c31)C(=O)NC4 [Staurosporine] | ~0.9 µM
